# Source: article PMC9820430, “New Affordable Methods for Large-Scale Isolation of Major Olive Secoiridoids and Systematic Comparative Study of Their Antiproliferative/Cytotoxic Effect on Multiple Cancer Cell Lines of Different Cancer Origins” (International Journal of Molecular Sciences, 2022)
# Where two headings read alike, the source gives them in different places.
# Assays:
# MCF-10A cells = test system: MCF-10A cells; set-up: method as in PMID 23403296, PMID 33117773, PMID 24849787, PMID 30964898; settings: cited from earlier work
# AGS = assay: ATP assay under 1% (v/v) O2 versus 20% (v/v) O2, 72 h; format: cell-based, human; settings: 1% (v/v) O2 vs 20% (v/v) O2
# Procedure: The effects of drugs on cancer cell lines are usually tested under atmospheric conditions (20% (v/v) O2). However, the O2 content in tissues (normoxia) and solid tumors (hypoxia) is ≤ 5% (v/v). In some tumors (i.e., pancreatic tumors) the % O2 is even ≤ 1% (v/v). This affects cell metabolism and signaling pathways which depend on the hypoxia-induced Factor 1A (HIF1A) and it could affect the activity of certain drugs. […] The effects of these three OOPs were tested on the MDA-MB 231, SK-BR-3 and MCF-7 breast cancer and on the AGS stomach cancer cell lines.
# Figure 6 Effect of O2 concentration on the antiproliferative/cytotoxic effect of OOPs. […] Cell viability was determined on (A) AGS, (B) MDA-MB 231, (C) MCF-7 and (D) SK-BR-3 cell lines using ATP-based luminescence assay. The results presented are from two independent experiments performed in triplicate. Bar graphs represent the mean cell count ± SE in each treatment group normalized to the control group (i.e., cells treated only with 0.2% (v/v) DMSO). * p < 0.05; ** p ≤ 0.01; *** p ≤ 0.001 (t-test) comparing the two different conditions.
# SK-MEL-28 = assay: Annexin V-FITC/PI staining, flow cytometry; format: cell-based, human
# Description: (§1) To discern whether cell death triggered by OOPs treatment occurred via apoptosis or necrosis under the experimental conditions applied in this study, live cells treated with OOPs were stained simultaneously with FITC-conjugated annexin V and propidium iodide (PI). Annexin V binds to phosphatidylserine (PS) translocating from the inner to the outer leaflet of the plasma membrane in apoptotic cells. Therefore, annexin V-FITC binding to PS labels live apoptotic cells with green FL. […] PS exposure to the extracellular space and cell membrane permeability were analyzed by flow cytometry as described in detail in the Experimental Section. […] OOP concentrations used were equal to the EC50 values for each cell line (Table 1). annexin V and PI staining discriminated between early- (i.e., annexin V +ve and PI −ve) and late-apoptotic cells (i.e., annexin V +ve and PI +ve), as well as between necrotic (i.e., annexin V −ve and PI +ve) and live (i.e., annexin V −ve and PI −ve) cells (Table 4).
# (§2) Apoptosis and necrosis were assessed by double staining with annexin V-FITC and propidium iodide (PI) and were analyzed using flow cytometry (FACS). Human cancer cells were plated in 96-well culture plates in 100 μL of complete medium and were allowed to adhere overnight (~16 h). […] In detail, 0.5 μL of a 500× stock of each tested compound in DMSO was added directly into each well in a final volume of 250 μL culture medium and was gently mixed by pipetting. Control wells were prepared under the same experimental conditions by adding only DMSO at a final concentration of 0.2% (v/v). At the end of the treatment, the cells were detached by trypsinization, media with serum was added to deactivate trypsin, and the cells from three wells were pooled together by centrifugation (1000 rpm, 5 min, 24 °C), washed with cold PBS, centrifuged (1000 rpm, 5 min, 24 °C) and finally resuspended in cold 1× annexin V binding buffer (10 mM HEPES pH = 7.4, 150 mM NaCl, 2.5 mM CaCl2) at a density of 10^4 cells/mL. Staining was performed by incubating with annexin V- FITC and propidium iodide (PI; BioLegend) for 15 min at room temperature in the dark, according to the manufacturer’s instructions. […] Cells treated with Triton X-100 (0.25% (v/v)) for 5 min at 4 °C were used as controls for 100% permeabilization of the plasma membrane and maximum fluorescence staining with PI (positive control for cells in necrosis). The presence of live, apoptotic or necrotic cells was assessed with the FACS Calibur (Becton–Dickinson, San Jose, CA, USA). In total, 10,000 cells were analyzed per measurement and the acquired data were analyzed using the FlowJo V.10.0.8 software (Tree Star Inc., Ashland, OR, USA). Each condition was analyzed in duplicate, and the results presented are from 2 or 3 independent experiments.
# (§3) Data showing OOPs’ apoptotic/necrotic effect were derived from two or three independent experiments and were presented as the means ± SE of the percentage (%) of both annexin V-positive cells (early apoptotic events) and % of annexin V/PI positive cells (late apoptotic events) over the whole cell population normalized to the corresponding events of the control cells, as determined using the FlowJo software.
# WJ-MSC = assay: ATP-based luminescence cell viability assay (ViaLight), 72 h; set-up: species or system human; settings: WJ-MSC (mesenchymal cells), 72 h treatment, read-out: EC50 Values of Olive Oil Polyphenols
# Procedure: The antiproliferative/cytotoxic effects of the selected OOPs on each cell line were assessed by measuring the cellular ATP levels after 72 h treatments using an ATP-based luminescence assay [73]. […] The EC50 values were calculated by nonlinear regression (curve fit) using a sigmoidal dose–response equation (Figure 2A and Figure S2).
# The OOPs tested in this study were first dissolved in an appropriate DMSO volume such as to prepare a final stock solution of 50 mM, which was further used to prepare various compound concentrations in DMSO-based solutions. The final DMSO concentration in the cell culture was maintained constant in all treated groups of any given experiment and never exceeded the value of 0.2% (v/v). For the treatment experiments, cells were plated in 96-well culture plates, in 100 μL of complete medium at a seeding density of 5000–10,000 cells/well—depending on cells’ size and doubling time—and were allowed to adhere overnight (~16 h). The next day, 150 μL of complete medium was added to each well and the cells were treated with various concentrations of OOPs. Each concentration was tested in triplicate and was repeated 2–3 times. To prepare the final concentration solutions, 0.5 μL of a 500× stock of each tested compound in DMSO was added directly into each well in a final volume of 250 μL culture medium and was gently mixed by pipetting. Control wells were prepared under the same experimental conditions by adding only DMSO at a final concentration of 0.2% (v/v). Compounds were not renewed during the entire period of cell exposure. All cells were cultured at 37 °C in a 5% (v/v) CO2 for 24, 48 or 72 h.
# Briefly, after the treatment with OOPs, the adapted medium was removed from the dish wells and the cells were washed twice with medium without FBS. Then, the C-lysis (LT27-076) was diluted in PBS (1:2) and a volume of 50 μL was added to each well. Cells were incubated with C-lysis for at least 10 min. […] Cell viability was quantified by measuring luminescence using a multi-mode microplate reader Safire^2 Tecan (software Magellan V6.00 STD.2PC WIN.20000/XP).
# MDA-MB 231 = assay: Annexin V-FITC/PI staining, flow cytometry; format: cell-based, human
# Description: as §1, §2, §3
Molecule,bioactivity under hypoxia versus atmospheric O2 (AGS),% Cell Viability (SK-MEL-28; 48 h at EC50) [%],Early Apoptotic (% ± S.D.) (SK-MEL-28; 48 h at EC50) [%],Late Apoptotic (% ± S.D.) (SK-MEL-28; 48 h at EC50),Total Apoptotic (%) (SK-MEL-28; 48 h at EC50),% Cell Viability (MDA-MB 231; 48 h at EC50) [%],Early Apoptotic (% ± S.D.) (MDA-MB 231; 48 h at EC50) [%],Late Apoptotic (% ± S.D.) (MDA-MB 231; 48 h at EC50) [%],Total Apoptotic (%) (MDA-MB 231; 48 h at EC50),EC50 (WJ-MSC; Homo sapiens) [µM],also measured
"ligstroside aglycone [4a,b]",less effective under hypoxic conditions,82,1.86 ± 0.8,No L.A.,1.86 ± 0.8,,,,,,sensitivity of cells to treatment (MCF-10A cells; 50 μM): resistant; EC50 (WJ-MSC): 39.3 ± 3.8 µM
"COC(=O)C1=COC(C)[C@@H](C=O)[C@@H]1CC(=O)OCCc1ccc(O)c(O)c1 (mixture of isomers) [3a,b, oleuropein aglycone]",similar,68,8.33 ± 1.9,4.91 ± 1.7%,13.24 ± 3.7,69,4.17± 0.4,3.87 ± 3.7,8.04 ± 4.1,28.7 ± 0.3,sensitivity of cells to treatment (MCF-10A cells; 150 μM): resistant
"C/C=C(/C=O)[C@@H](CC=O)CC(=O)OCCc1ccc(O)c(O)c1 [compound 2, oleacein]",,76,5.87 ± 1.1,No L.A.,5.87 ± 1.1,73,1.89 ± 0.03,1.49 ± 0.3,3.38 ± 0.2,28.2 ± 11.1,% Cell Viability (MDA-MB 231; 72 h at EC50): 70%; Early Apoptotic (% ± S.D.) (MDA-MB 231; 72 h at EC50): 3.65 ± 0.5%; Late Apoptotic (% ± S.D.) (MDA-MB 231; 72 h at EC50): 1.64 ± 0.5%; Total Apoptotic (%) (MDA-MB 231; 72 h at EC50): 5.29 ± 1.0%; % Cell Viability (SK-MEL-28; 72 h at EC50): 72%; Early Apoptotic (% ± S.D.) (SK-MEL-28; 72 h at EC50): 6.70 ± 1.0%; Late Apoptotic (% ± S.D.) (SK-MEL-28; 72 h at EC50): 1.34 ± 0.3%; Total Apoptotic (%) (SK-MEL-28; 72 h at EC50): 8.04 ± 0.7%
"C/C=C(/C=O)[C@@H](CC=O)CC(=O)OCCc1ccc(O)cc1 [compound 1, oleocanthal]",similar,68,4.10 ± 0.2,2.47 ± 0.7%,6.57 ± 0.5,85,1.19 ± 0.01,1.38 ± 0.1,2.56 ± 0.1,,sensitivity of cells to treatment (MCF-10A cells; 40 μM): resistant
